{"source": "patent US20120088746A1", "about": "“AMIDE DERIVATIVES AS ION-CHANNEL LIGANDS AND PHARMACEUTICAL COMPOSITIONS AND METHODS OF USING THE SAME” (PFIZER INC., priority 2006, published 2012)", "data": [{"biological_target": "human VR1 (Homo sapiens, UniProt Q8NER1)", "sequence (Q8NER1 whole entry)": "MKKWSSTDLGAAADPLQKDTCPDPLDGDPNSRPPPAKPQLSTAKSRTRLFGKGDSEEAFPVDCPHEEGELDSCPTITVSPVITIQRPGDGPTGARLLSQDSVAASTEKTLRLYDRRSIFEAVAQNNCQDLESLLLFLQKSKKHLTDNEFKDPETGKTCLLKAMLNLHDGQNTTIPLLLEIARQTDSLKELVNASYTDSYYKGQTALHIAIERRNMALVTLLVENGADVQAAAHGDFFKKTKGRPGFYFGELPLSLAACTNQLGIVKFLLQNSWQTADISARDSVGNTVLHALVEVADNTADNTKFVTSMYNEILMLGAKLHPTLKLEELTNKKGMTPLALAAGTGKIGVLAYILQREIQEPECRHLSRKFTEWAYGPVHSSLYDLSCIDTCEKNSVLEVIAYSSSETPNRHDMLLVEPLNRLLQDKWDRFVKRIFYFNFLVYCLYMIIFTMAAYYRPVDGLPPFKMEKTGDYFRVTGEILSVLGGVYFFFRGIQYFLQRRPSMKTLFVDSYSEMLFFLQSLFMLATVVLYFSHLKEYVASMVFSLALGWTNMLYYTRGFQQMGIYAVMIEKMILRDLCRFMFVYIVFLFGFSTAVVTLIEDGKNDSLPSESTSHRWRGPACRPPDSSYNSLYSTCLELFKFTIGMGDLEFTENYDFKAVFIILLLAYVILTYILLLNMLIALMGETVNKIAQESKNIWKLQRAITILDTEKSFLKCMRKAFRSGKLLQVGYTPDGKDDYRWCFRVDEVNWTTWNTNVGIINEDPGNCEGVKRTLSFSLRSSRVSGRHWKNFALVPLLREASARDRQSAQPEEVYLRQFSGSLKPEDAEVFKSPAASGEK", "assay": "Acid stimulation assay (acid-induced intracellular calcium change, FDSS 6000)", "assay_type": "cell-based", "settings": "final assay buffer pH5.8, 15 min pre-incubation, read-out: IC50 (nM) Low pH", "description": "VR1 antagonistic activity can be determined by the Ca^2+ imaging assay using human VR1 highly expressing cells. The cells that highly express human VR1 receptors are obtainable from several different conventional methods. The one standard method is cloning from human Dorsal Root Ganglion (DRG) or kidney according to the methods such as described in the journal article; Nature, 389, pp 816-824, 1997. Alternatively VR1 receptors highly expressing human keratinocytes are also known and published in the journal article (Biochemical and Biophysical Research Communications, 291, pp 124-129, 2002). […] Furthermore, the method to up regulate human VR1 gene, which is usually a silent gene or don't produce detectable level of VR1 receptors, is also available to obtain propriety cells. Such genetic modification method was described in detail; Nat. Biotechnol., 19, pp 440-445, 2001.\nThe cells that express human VR1 receptors were maintained in culture flask at 37° C. in an environment containing 5% CO2 until use in the assay. The intracellular Ca^2+ imaging assay to determine VR1 antagonistic activities were done by following procedures.\nThe culture medium was removed from the flask and fura-2/AM fluorescent calcium indicator was added to the flask at a concentration of 5 μM in the medium. The flask was placed in CO2 incubator and incubated for 1 hour. Then the cells expressing the human VR1 receptors were detached from the flask follow by washing with phosphate buffer saline, PBS(−) and re-suspended in assay buffer. The 80 tit of aliquot of cell suspension (3.75×10^5 cells/ml) was added to the assay plate and the cells were spun down by centrifuge (950 rpm, 20° C., 3 minutes).\n(§1) The Acid-induced changes in the intracellular calcium concentration were monitored using FDSS 6000 (Hamamatsu Photonics, Japan), a fluorometric imaging system. The cell suspension in resting buffer (HBSS supplemented with 10 mM HEPES, pH 7.4) were pre-incubated with varying concentrations of the test compounds or resting buffer (buffer control) for 15 minutes at room temperature under the dark condition. The cells were automatically added the stimulating solution (HBSS supplemented with MES, final assay buffer pH5.8) by the FDSS 6000.\nas §1, with “7.4) was” for “7.4) were”, “under” for “under the”, “dark conditions.” for “dark condition.”, “added to” for “added”", "units": {"IC50": "nM"}, "values": [{"smiles": "Cc1cc([C@@H](C)NC(=O)c2ccc3nc(C(F)(F)F)cc(OC4CCOCC4)c3c2)c(F)cc1NS(C)(=O)=O", "note": "[Example 94, 4-(TETRAHYDRO-PYRAN-4-YLOXY)-2-TRIFLUOROMETHYL-QUINOLINE-6CARBOXYLIC ACID [(R)-1-(2-FLUORO-4-METHANESULFONYLAMINO-5-METHYL-PHENYL)-ETHYL]-AMIDE]", "IC50": 35}, {"smiles": "CCOC(=O)N1CCN(c2nc(C(F)(F)F)nc3ccc(C(=O)N[C@H](C)c4cc(C)c(NS(C)(=O)=O)cc4F)cc23)CC1", "note": "[Example 96, 4-{6-[(R)-1-(2-FLUORO-4-METHANESULFONYLAMINO-5-METHYL-PHENYL)-ETHYLCARBAMOYL]-2-TRIFLUOROMETHYL-QUINAZOLIN-4-YL}-PIPERAZINE-1-CARBOXYLIC ACID ETHYL ESTER]", "IC50": 41}, {"smiles": "Cc1cc([C@@H](C)NC(=O)c2ccc3nc(C(F)(F)F)cc(NC4CCCCC4)c3c2)c(F)cc1NS(C)(=O)=O", "note": "[Example 97, 4-CYCLOHEXYLAMINO-2-TRIFLUOROMETHYLQUINOLINE-6-CARBOXYLIC ACID [(R)-1-(2-FLUORO-4-METHANESULFONYLAMINO-5-METHYLPHENYL)ETHYL]AMIDE]", "IC50": 41}, {"smiles": "Cc1cc([C@@H](C)NC(=O)c2ccc3nc(C(F)(F)F)cc(N4CCC(CO)CC4)c3c2)c(F)cc1NS(C)(=O)=O", "note": "[Example 99, 4-(4-HYDROXYMETHYL-PIPERIDIN-1-YL)-2-TRIFLUOROMETHYL-QUINOLINE-6-CARBOXYLIC ACID [(R)-1-(2-FLUORO-4-METHANESULFONYLAMINO-5-METHYL-PHENYL)-ETHYL]-AMIDE]", "IC50": 630}, {"smiles": "Cc1cc([C@@H](C)NC(=O)c2ccc3cc(C(C)(O)C(F)(F)F)ccc3c2)c(F)cc1NS(C)(=O)=O", "note": "(stereo partly drawn) [Example 101]", "IC50": 41}, {"smiles": "Cc1cc([C@@H](C)NC(=O)c2ccc3cc(-n4cccn4)ccc3c2)c(F)cc1NS(C)(=O)=O", "note": "[Example 105, 6-PYRAZOL-1-YL-NAPHTHALENE-2-CARBOXYLIC ACID [(R)-1-(2-FLUORO-4-METHANESULFONYLAMINO-5-METHYL-PHENYL)-ETHYL]-AMIDE]", "IC50": 147}, {"smiles": "Cc1cc([C@@H](C)NC(=O)c2ccc3nc(C(F)(F)F)nc(N4CCC(Cc5ccccc5)CC4)c3c2)c(F)cc1NS(C)(=O)=O", "note": "[Example 106, 4-(4-BENZYL-PIPERIDIN-1-YL)-2-TRIFLUOROMETHYL-QUINAZOLINE-6-CARBOXYLIC ACID [(R)-1-(2-FLUORO-4-METHANESULFONYLAMINO-5-METHYL-PHENYL)-ETHYL]-AMIDE]", "IC50": 6}, {"smiles": "COC1CCN(c2ccc3cc(C(=O)N[C@H](C)c4cc(C)c(NS(C)(=O)=O)cc4F)ccc3n2)CC1", "note": "[Example 107]", "IC50": 337}, {"smiles": "Cc1cc([C@@H](C)NC(=O)c2ccc3nc(C4(C)CC4)ccc3c2)c(F)cc1NS(C)(=O)=O", "note": "[Example 108, N-((1R)-1-{2-FLUORO-5-METHYL-4-[(METHYLSULFONYL)AMINO]PHENYL}ETHYL)-2-(1-METHYLCYCLOPROPYL)QUINOLINE-6-CARBOXAMIDE]", "IC50": 5}, {"smiles": "Cc1cc([C@@H](C)NC(=O)c2ccc3nc(N4CCC(F)(F)CC4)ccc3c2)c(F)cc1NS(C)(=O)=O", "note": "[Example 110, (R)-2-(4,4-DIFLUOROPIPERIDIN-1-YL)-N-(1-(2-FLUORO-5-METHYL-4-(METHYLSULFONAMIDO)PHENYL)ETHYL)QUINOLINE-6-CARBOXAMIDE]", "IC50": 94}, {"smiles": "Cc1cc([C@@H](C)NC(=O)c2ccc3nc(C(F)(F)F)nc(N4CCOCC4)c3c2)c(F)cc1NS(C)(=O)=O", "note": "[Example 112, 4-MORPHOLIN-4-YL-2-TRIFLUOROMETHYL-QUINAZOLINE-6-CARBOXYLIC ACID [(R)-1-(2-FLUORO-4-METHANESULFONYLAMINO-5-METHYL-PHENYL)-ETHYL]-AMIDE]", "IC50": 33}, {"smiles": "Cc1cc([C@@H](C)NC(=O)c2ccc3nc(N4CCC(C)(C)CC4)ccc3c2)c(F)cc1NS(C)(=O)=O", "note": "[Example 113]", "IC50": 149}]}]}
